Laboratory results taken from patent US6706664B1, “Benzoxazole compounds, process for the preparation thereof and herbicides” (UBE Industries, Ltd., priority 1999, dated 2004).

Tests used:
Design in all cases: key: 0: normal development; 1: Less damaged; 2: Slightly damaged; 3: Moderately damaged; 4: Severely damaged; 5: All killed
flat sedge = test: Herbicidal test for paddy field; format: in vivo, Cyperus serotinus; details: paddy field pot, 500 g/ha dropwise at 1.5 leaf stage of barnyardgrass, 3 weeks, rank vs non-treated
Protocol: Wagner pots, each having an area of 1/5000 are, were packed with Ube soil (alluvial soil) and planted with seeds or tubers of young rice plant, barnyardgrass, bulrush, flat sedge and monochoria. Then, the pots were filled with water to a depth of 3 cm.
Each wettable powder of the desired compounds (I) shown in Table 1 prepared in accordance with Example 2 was diluted with water containing a surfactant (0.05%) and subjected to dropwise addition treatment by using pipet so that an effective concentration of the compound (I) in each herbicide became 500 g/ha at 1.5 leaf stage of barnyardgrass.
These plants were controlled in a glass house at an average temperature of 25° C. for 3 weeks, and then herbicidal effects thereof were investigated.
The herbicidal effects are evaluated according to the following 6 ranks as compared with non-treated district.
(0: normal development, 1: Less damaged, 2: Slightly damaged, 3: Moderately damaged, 4: Severely damaged, 5: All killed).

bulrush = test: Herbicidal test for paddy field; format: in vivo, Scrips juncoides; details: paddy field pot, 500 g/ha dropwise at 1.5 leaf stage of barnyardgrass, 3 weeks, rank vs non-treated
In short: (§1)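 Post-flooding water application of 500 g/ha, given at 1.5-leaf barnyardgrass, to plants in Ube alluvial soil held under 3 cm of water. Ratings of 0 to 5 relative to untreated controls were made after three weeks in a glasshouse.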

barnyardgrass [1] = test: Herbicidal test for paddy field; format: in vivo, Echinochloa crusgalli; details: paddy field pot, 500 g/ha dropwise at 1.5 leaf stage of barnyardgrass, 3 weeks, rank vs non-treated
In short: as §1

barnyardgrass [2] = test: Soil treatment test for upland field; format: in vivo, Echinochloa crusgalli; details: 500 g/ha, glass house 25° C., 3 weeks
In short: (§2)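 Pre-emergence test: seeds sown in Ube alluvial soil in Wagner pots, soil surface sprayed with wettable powder in water with 0.05% surfactant at 500 g/ha. Plants kept in a glasshouse at average 25 °C for 3 weeks, then damage scored 0 (normal) to 5 (all killed).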

young rice plant = test: Herbicidal test for paddy field; format: in vivo; details: paddy field pot, 500 g/ha dropwise at 1.5 leaf stage of barnyardgrass, 3 weeks, rank vs non-treated
In short: as §1

common lambsquartes = test: Soil treatment test for upland field; format: in vivo, Chenopodium album; details: 500 g/ha, glass house 25° C., 3 weeks
In short: as §2

cotton = test: Soil treatment test for upland field; format: in vivo; details: 500 g/ha, glass house 25° C., 3 weeks
In short: as §2

solgum = test: Soil treatment test for upland field; format: in vivo; details: 500 g/ha, glass house 25° C., 3 weeks
In short: as §2

soybean = test: Soil treatment test for upland field; format: in vivo; details: 500 g/ha, glass house 25° C., 3 weeks
In short: as §2

wheat = test: Soil treatment test for upland field; format: in vivo; details: 500 g/ha, glass house 25° C., 3 weeks
In short: as §2

corn = test: Soil treatment test for upland field; format: in vivo; details: 500 g/ha, glass house 25° C., 3 weeks
In short: as §2

sugar beat = test: Soil treatment test for upland field; format: in vivo; details: 500 g/ha, glass house 25° C., 3 weeks
In short: as §2

annual bluegrass = test: Soil treatment test for upland field; format: in vivo, Poa annua; details: 500 g/ha, glass house 25° C., 3 weeks
In short: as §2

livid amaranth = test: Soil treatment test for upland field; format: in vivo, Amaranthus lividus; details: 500 g/ha, glass house 25° C., 3 weeks
In short: as §2

Large crabgrass = test: Soil treatment test for upland field; format: in vivo, Digitaria adscendens; details: 500 g/ha, glass house 25° C., 3 weeks
In short: as §2

monochoria = test: Herbicidal test for paddy field; format: in vivo, Monochoria vaginalis; details: paddy field pot, 500 g/ha dropwise at 1.5 leaf stage of barnyardgrass, 3 weeks, rank vs non-treated
In short: as §1

green foxtail = test: Soil treatment test for upland field; format: in vivo, Setaria viridis; details: 500 g/ha, glass house 25° C., 3 weeks
In short: as §2

velvetleaf = test: Soil treatment test for upland field; format: in vivo, Abutilon theophrasti; details: 500 g/ha, glass house 25° C., 3 weeks
In short: as §2

blackgrass = test: Soil treatment test for upland field; format: in vivo, Alopecurus aegualis; details: 500 g/ha, glass house 25° C., 3 weeks
In short: as §2

## CCC(Oc1cccc(C#N)c1)c1nc2cc(C#N)ccc2o1 (stereo not shown) [Compound 392]
Flat sedge
  Effect Flat sedge: 5
bulrush
  Effect Bulrush: 5
Barnyardgrass [1]
  Effect Barnyardgrass: 5
Barnyardgrass [2]
  Effects Barnyardgrass: 2
Young rice plant
  Effect Young rice plant: 0
Common lambsquartes
  Effects Common lambsquarters: 3
cotton
  Effects Cotton: 0
solgum
  Effects Solgum: 5
soybean
  Effects Soybean: 0
wheat
  Effects Wheat: 0
corn
  Effects Corn: 1
Sugar beat
  Effects Sugar beat: 2
Annual bluegrass
  Effects Annual bluegrass: 4
Livid amaranth
  Effects Livid amaranth: 5
Large crabgrass
  Effects Large crabgrass: 5
monochoria
  Effect Monochoria: 5
Green foxtail
  Effects Green foxtail: 5

## CCC(Oc1cccc(OC(F)(F)F)c1)c1nc2cc(C#N)ccc2o1 (stereo not shown) [Compound 396]
Flat sedge
  Effect Flat sedge: 5
bulrush
  Effect Bulrush: 5
Barnyardgrass [1]
  Effect Barnyardgrass: 2
velvetleaf
  Effects Velvetleaf: 5
Barnyardgrass [2]
  Effects Barnyardgrass: 5
Young rice plant
  Effect Young rice plant: 2
blackgrass
  Effects Blackgrass: 5
Common lambsquartes
  Effects Common lambsquarters: 5
solgum
  Effects Solgum: 3
soybean
  Effects Soybean: 2
wheat
  Effects Wheat: 2
corn
  Effects Corn: 2
Sugar beat
  Effects Sugar beat: 5
Annual bluegrass
  Effects Annual bluegrass: 5
Livid amaranth
  Effects Livid amaranth: 5
Large crabgrass
  Effects Large crabgrass: 5
monochoria
  Effect Monochoria: 5
Green foxtail
  Effects Green foxtail: 5

## CC(Oc1cccc(C(F)(F)F)c1)c1nc2cc(Cl)ccc2o1 (stereo not shown) [Compound 138]
Flat sedge
  Effect Flat sedge: 3
bulrush
  Effect Bulrush: 2
Barnyardgrass [1]
  Effect Barnyardgrass: 2
Barnyardgrass [2]
  Effects Barnyardgrass: 1
Young rice plant
  Effect Young rice plant: 0
blackgrass
  Effects Blackgrass: 5
Common lambsquartes
  Effects Common lambsquarters: 3
cotton
  Effects Cotton: 0
solgum
  Effects Solgum: 0
soybean
  Effects Soybean: 0
wheat
  Effects Wheat: 0
corn
  Effects Corn: 0
Annual bluegrass
  Effects Annual bluegrass: 3
Livid amaranth
  Effects Livid amaranth: 5
Large crabgrass
  Effects Large crabgrass: 4
monochoria
  Effect Monochoria: 3
Green foxtail
  Effects Green foxtail: 2

## CCC(Oc1ccc(F)c(C(F)(F)F)c1)c1nc2cc(C#N)c(F)cc2o1 (stereo not shown) [Compound 346]
Flat sedge
  Effect Flat sedge: 5
bulrush
  Effect Bulrush: 5
Barnyardgrass [1]
  Effect Barnyardgrass: 5
Young rice plant
  Effect Young rice plant: 2
monochoria
  Effect Monochoria: 5

## CCC(Oc1ccc(F)c(C(F)(F)F)c1)c1nc2cc(C#N)ccc2o1 (stereo not shown) [Compound 189]
Flat sedge
  Effect Flat sedge: 5
bulrush
  Effect Bulrush: 5
Barnyardgrass [1]
  Effect Barnyardgrass: 5
Young rice plant
  Effect Young rice plant: 2
monochoria
  Effect Monochoria: 5

## CCCC(Oc1ccc(F)c(C(F)(F)F)c1)c1nc2cc(C#N)c(F)cc2o1 (stereo not shown) [Compound 348]
Flat sedge
  Effect Flat sedge: 4
bulrush
  Effect Bulrush: 4
Barnyardgrass [1]
  Effect Barnyardgrass: 4
Young rice plant
  Effect Young rice plant: 2
monochoria
  Effect Monochoria: 5
